Results: ChEMBL document CHEMBL5050838 (2021)
Activity calls are given as the source filed them. The rule behind the calls is not given here.

Assays:
JIMT-1 [1] = experiment: Induction of apoptosis in human JIMT-1 cells at high concentration assessed as change in cleaved caspase-3 levels and measured by Western blot analysis; type: functional, cell-based; conditions: dose 100-5000 nM
JIMT-1 [2] = experiment: Antiproliferative activity against human JIMT-1 cells after 72 hrs by Cell Titer Glo assay; type: functional, cell-based; conditions: JIMT-1, 72 h
BT-474 = experiment: Antiproliferative activity against T-DM1-resistant human BT-474 cells after 72 hrs by Cell Titer Glo assay; type: functional, cell-based; conditions: BT-474, 72 h
MDA-MB-436 = experiment: Antiproliferative activity against human MDA-MB-436 cells after 72 hrs by Cell Titer Glo assay; type: functional, cell-based; conditions: MDA-MB-436, 72 h
MDA-MB-157 = experiment: Antiproliferative activity against human MDA-MB-157 cells after 72 hrs by Cell Titer Glo assay; type: functional, cell-based; conditions: MDA-MB-157, 72 h
JIMT-1 [3] = experiment: Induction of mitotic arrest in human JIMT-1 cells at high concentration assessed as change in p-histone H3 levels and measured by Western blot analysis; type: functional, cell-based; conditions: dose 100-5000 nM
MCF-12A = experiment: Antiproliferative activity against human MCF-12A cells after 72 hrs by Cell Titer Glo assay; type: functional, cell-based
JIMT-1 [4] = experiment: Induction of DNA damage in human JIMT-1 cells at high concentration assessed as change in p-H2AX levels and measured by Western blot analysis; type: functional, cell-based; conditions: dose 100-5000 nM
JIMT-1 [5] = experiment: Induction of apoptosis in human JIMT-1 cells at high concentration assessed as change in cleaved PARP levels and measured by Western blot analysis; type: functional, cell-based; conditions: dose 100-5000 nM
JIMT-1 [6] = experiment: Antitumor activity against human JIMT-1 cells xenografted female nude mouse assessed as reduction in tumor growth at 5 mg/kg, po administered for every two days for 30 days; type: functional, organism-based; conditions: time 30.0 day
JIMT-1 [7] = experiment: Induction of DNA damage in human JIMT-1 cells assessed as change in p-H2AX levels and measured by Western blot analysis; type: functional, cell-based; conditions: dose 100-5000 nM
[8] = Intrinsic clearance in mouse liver microsomes; type: ADME, Microsome; conditions: read-out: CLH
JIMT-1 [9] = experiment: Induction of mitotic arrest in human JIMT-1 cells assessed as change in p-histone H3 levels and measured by Western blot analysis; type: functional, cell-based; conditions: dose 100-5000 nM
[10] = Half-life in human liver microsomes; type: ADME, Microsome
JIMT-1 [11] = experiment: Antitumor activity against human JIMT-1 cells xenografted female nude mouse assessed as reduction in tumor growth at 2 mg/kg, po administered for every two days for 30 days; type: functional, organism-based; conditions: time 30.0 day
[12] = Intrinsic clearance in human liver microsomes; type: ADME, Microsome; conditions: read-out: CLH
[13] = Toxicity in human JIMT-1 cells xenografted female nude mouse assessed as effect on body weight at 25 mg/kg, po administered for every two days for 23 days; type: organism-based; conditions: in vivo, 552 h, time 23 day
[14] = Apparent permeability of the compound across apical to basolateral side in human Caco-2 cells; type: ADME, cell-based
[15] = Toxicity in human JIMT-1 cells xenografted female nude mouse assessed as effect on body weight at 2 mg/kg, po administered for every two days for 30 days; type: organism-based; conditions: in vivo, 720 h, time 30 day
JIMT-1 [16] = experiment: Anticlonogenic activity against human JIMT-1 cells assessed as reduction number of cell colonies at 100 to 1000 nM measured after 12 days by crystal violet reagent based colony formation assay; type: functional; conditions: dose 100-1000 nM, time 12.0 day
JIMT-1 [17] = experiment: Induction of apoptosis in human JIMT-1 cells assessed as change in cleaved PARP levels and measured by Western blot analysis; type: functional, cell-based; conditions: dose 100-5000 nM
[18] = Lipophilicity, log D of compound at pH 7.4 in octanol/phosphate buffer; type: physicochemical
[19] = Plasma protein binding in human assessed as unbound fraction; type: ADME, cell-free
JIMT-1 [20] = experiment: Induction of apoptosis in human JIMT-1 cells assessed as change in cleaved caspase-3 levels and measured by Western blot analysis; type: functional, cell-based; conditions: dose 100-5000 nM
JIMT-1 [21] = experiment: Antitumor activity against human JIMT-1 cells xenografted female nude mouse assessed as reduction in tumor growth at 25 mg/kg, po administered for every two days for 23 days; type: functional, organism-based; conditions: time 23.0 day
JIMT-1 [22] = experiment: Antitumor activity against human JIMT-1 cells xenografted female nude mouse assessed as reduction in tumor weight at 25 mg/kg, po administered for every two days for 23 days; type: functional, organism-based; conditions: time 23.0 day
[23] = Apparent permeability of the compound across basolateral to apical side in human Caco-2 cells; type: ADME, cell-based
[24] = Toxicity in human JIMT-1 cells xenografted female nude mouse assessed as effect on body weight at 2 mg/kg, iv administered for every two days for 30 days; type: organism-based; conditions: in vivo, 720 h, time 30 day
JIMT-1 [25] = experiment: Antitumor activity against human JIMT-1 cells xenografted female nude mouse assessed as reduction in tumor growth at 2 mg/kg, iv administered for every two days for 30 days; type: functional, organism-based; conditions: time 30.0 day
JIMT-1 [26] = experiment: Inhibition of TACC3 expressed in human JIMT-1 cells at 1 uM and measured after 6 hrs by cellular thermal shift assay relative to control; type: cell-based
[27] = Kinetic solubility in sodium phosphate buffer at pH 7.4 and at 25 degreeC after 2 hrs; type: physicochemical; conditions: read-out: Kinetic_solubility
[28] = Plasma protein binding in human; type: ADME, cell-free
[29] = Half-life in mouse liver microsomes; type: ADME, Microsome
[30] = Toxicity in human JIMT-1 cells xenografted female nude mouse assessed as effect on body weight at 5 mg/kg, po administered for every two days for 30 days; type: organism-based; conditions: in vivo, 720 h, time 30 day

In the case of CC(C)CNc1ccnc(NCc2csc(-c3ccccc3)n2)n1, the Activity (JIMT-1 [1]) is reported as “Active”, the IC50 (JIMT-1 [2]) is reported as 1.8 µM and the IC50 (BT-474) is reported as 3.73 µM. For the same molecule, the IC50 (MDA-MB-436) was 4.14 µM, the IC50 (MDA-MB-157) was 1.82 µM and the Activity (JIMT-1 [3]) was “Active”. The IC50 (MCF-12A) was 3.46 µM, the Activity (JIMT-1 [4]) was “Active” and the Activity (JIMT-1 [5]) was “Active”.
For CCN(Cc1ccncc1)Cc1c(O)ccc2c(-c3cc4ccccc4oc3=O)cc(=O)oc12, the Activity (JIMT-1 [1]) was “Active”, the IC50 (JIMT-1 [2]) was 1.15 µM and the IC50 (BT-474) was 0.99 µM. The IC50 (MDA-MB-436) was 1.3 µM, the IC50 (MDA-MB-157) was 1.82 µM and the Activity (JIMT-1 [3]) was “Active”. The IC50 (MCF-12A) was greater than 10 µM, the Activity (JIMT-1 [4]) was “Active” and the Activity (JIMT-1 [5]) was “Active”.
For COc1ccc(-c2cc(Nc3ccnc(N4CCOCC4)n3)on2)cc1, the Activity (JIMT-1 [6]) was “Active”, the Activity (JIMT-1 [7]) was “Dose-Dependent Effect” and the microsomal CLint [8] was 329 µL/min/mg. The Activity (JIMT-1 [9]) was “Dose-Dependent Effect”, the half-life [10] was 12 min and the Activity (JIMT-1 [11]) was “Active”. The microsomal CLint [12] was 118 µL/min/mg, the IC50 (BT-474) was 0.37 µM and the Activity [13] was “Non-Toxic”. It also gave a Papp A→B [14] of 19.1 ×10⁻⁶ cm/s, an IC50 (MDA-MB-436) of 0.146 µM and an IC50 (MDA-MB-157) of 0.33 µM. For the same molecule, the Activity [15] was “Non-Toxic”, the Activity (JIMT-1 [16]) was “Dose-Dependent Effect” and the Activity (JIMT-1 [17]) was “Dose-Dependent Effect”. The logD [18] was 2.31, the PPB [19] was 1.13% and the Activity (JIMT-1 [20]) was “Dose-Dependent Effect”. For the same molecule, the Activity (JIMT-1 [21]) was “Active”, the Activity (JIMT-1 [22]) was “Active” and the Papp B→A [23] was 24.1 ×10⁻⁶ cm/s. The Activity [24] was “Non-Toxic”, the IC50 (MCF-12A) was greater than 10 µM and the Activity (JIMT-1 [25]) was “Active”. The Activity (JIMT-1 [26]) was “Active”, the solubility kinetic at 2 h [27] was less than 1 µM and the PPB [28] was 98.87%. For the same molecule, the half-life [29] was 5 min and the Activity [30] was “Non-Toxic”.
